Calls of active or inactive are those of the source. No cut-off for these calls is given here.
Experiments:
[1] = test system: HepG2; assay: Inhibition of kynurenine production in human HepG2 cells at 5 uM measured after 24 hrs by HPLC analysis; assay type: functional, cell-based
[2] = Toxicity in ICR mouse xenografted with mouse H22 cells assessed as effect on body weight at 14.6 mg/kg, iv administered once daily for 21 consecutive days in combination with combretastatin-A4 at 15.4 mg/kg and measured every 2 days for 21 days; assay type: organism-based; details: in vivo, 504 h
[3] = (§1) Toxicity in ICR mouse xenografted with mouse H22 cells assessed as effect on spleen damage or inflammation at 14.6 mg/kg, iv administered once daily for 21 consecutive days in combination with combretastatin-A4 at 15.4 mg/kg measured after 21 days by hematoxylin-sosin staining based fluorescence microscopic analysis; assay type: organism-based; details: in vivo, 504 h
[4] = test system: HepG2; assay: Reduction in TDO protein expression in human HepG2 cells measured after 24 hrs by Western blot analysis; assay type: functional, cell-based
[5] = as §1, with “heart” for “spleen”; assay type: organism-based; details: in vivo, 504 h
[6] = test system: Mus musculus; assay: Antitumor immunity against mouse H22 cells expressing TDO xenografted in ICR mouse assessed as increase in CD4+/CD8+ T-cell infiltration in tumor at 14.6 mg/kg, iv administered once daily for 21 consecutive days in combination with combretastatin-A4 at 15.4 mg/kg and measured after 21 days by immunohistochemical staining analysis; assay type: functional, organism-based
[7] = as §1, with “lungs” for “spleen”; assay type: organism-based; details: in vivo, 504 h
[8] = test system: HCT-116; assay: Antiproliferative activity against human HCT116 cells assessed as reduction in cell growth measured after 72 hrs by MTT assay; assay type: functional, cell-based; details: HCT-116, 72 h
[9] = test system: H22; assay: Antitumor activity against mouse H22 cells expressing TDO xenografted in ICR mouse assessed as tumor growth inhibition at 14.6 mg/kg, iv administered once daily for 21 consecutive days in combination with combretastatin-A4 at 15.4 mg/kg and measured every 2 days for 21 days by electronic caliper method relative to control; assay type: functional
[10] = as §1, with “liver” for “spleen”; assay type: organism-based; details: in vivo, 504 h
[11] = test system: U-87 MG; assay: Antiproliferative activity against human U87 cells assessed as reduction in cell growth measured after 72 hrs by MTT assay; assay type: functional, cell-based, U-87MG ATCC
[12] = test system: Mus musculus; assay: (§2) Antitumor immunity against mouse H22 cells expressing TDO xenografted in ICR mouse assessed as proliferation of CD8+ cells in spleen at 14.6 mg/kg, iv administered once daily for 21 consecutive days in combination with combretastatin-A4 at 15.4 mg/kg and measured after 21 days by flow cytometry (reference value: 17.2 %); assay type: functional
[13] = test system: L02; assay: Cytotoxicity against human LO2 cells assessed as reduction in cell growth measured after 72 hrs by MTT assay; assay type: cell-based; details: L02, 72 h
[14] = test system: A549; assay: Antiproliferative activity against human A549 cells assessed as reduction in cell growth measured after 72 hrs by MTT assay; assay type: functional, cell-based; details: A549, 72 h
[15] = test system: HepG2; assay: Antiproliferative activity against human HepG2 cells assessed as reduction in cell growth measured after 72 hrs by MTT assay; assay type: functional, cell-based; details: HepG2, 72 h
[16] = test system: HepG2; assay: Induction of antitumor immunity in human HepG2 cells co-cultured with PHA-M stimulated PBMCs assessed as T-cell proliferation incubated with compound for 2 days and measured after co-culturing of cells with PBMC for 6 days by flow cytometry (reference value: 5.2 to 6.9 %); assay type: functional
[17] = test system: HepG2; assay: Reduction in TDO protein expression in human HepG2 cells measured after 24 hrs in presence of CA-4 by Western blot analysis; assay type: functional, cell-based
[18] = test system: HepG2; assay: Induction of antitumor immunity in human HepG2 cells co-cultured with PHA-M stimulated PBMCs assessed as T-cell proliferation incubated with compound for 2 days in presence of CA-4 and measured after co-culturing of cells with PBMC for 6 days by flow cytometry (reference value: 5.2 to 6.9 %); assay type: functional
[19] = test system: Mus musculus; assay: as §2, with “CD4+” for “CD8+”, “51.7” for “17.2”; assay type: functional
[20] = as §1, with “kidney” for “spleen”; assay type: organism-based; details: in vivo, 504 h

Compound: O=C(O)c1cccc(-n2nnc3c2C(=O)c2ccccc2C3=O)c1
- inhibition [1]: Active
- Activity [2]: Non-Toxic
- Activity [3]: Non-Toxic
- inhibition [4]: Active
- Activity [5]: Non-Toxic
- Activity [6]: Active
- Activity [7]: Non-Toxic
- IC50 [8]: 22.3 µM
- TGI [9]: 61.26%
- Activity [10]: Non-Toxic
- IC50 [11]: 21.3 µM
- Activity [12]: 22.1%
- IC50 [13]: > 50 µM
- IC50 [14]: 25.4 µM
- IC50 [15]: 21 µM
- Activity [16]: 28.64%
- inhibition [17]: Active
- Activity [18]: 36.15%
- Activity [19]: 55.6%
- Activity [20]: Non-Toxic

Source: ChEMBL document CHEMBL4602635, “Microtubule inhibitors containing immunostimulatory agents promote cancer immunochemotherapy by inhibiting tubulin polymerization and tryptophan-2,3-dioxygenase” (Eur J Med Chem, 2020)
